Here are results for 19 molecules from patent publication US9751869B2, “LXR modulators” (BRISTOL-MYERS SQUIBB COMPANY, priority 2013, dated 2017).

The target of this experiment is T1, LXRβ (Homo sapiens, UniProt P55055).
T1 construct: Co-transfection expression plasmids, comprising full-length LXRα (pCMX-h LXRα or LXRβ (pCMX-hLXRβ)); expressed in transfected cells; host or cells: CV-1 African green monkey kidney cells, transient transfection with pCMX-hLXRβ
T1 sequence (P55055 1-460): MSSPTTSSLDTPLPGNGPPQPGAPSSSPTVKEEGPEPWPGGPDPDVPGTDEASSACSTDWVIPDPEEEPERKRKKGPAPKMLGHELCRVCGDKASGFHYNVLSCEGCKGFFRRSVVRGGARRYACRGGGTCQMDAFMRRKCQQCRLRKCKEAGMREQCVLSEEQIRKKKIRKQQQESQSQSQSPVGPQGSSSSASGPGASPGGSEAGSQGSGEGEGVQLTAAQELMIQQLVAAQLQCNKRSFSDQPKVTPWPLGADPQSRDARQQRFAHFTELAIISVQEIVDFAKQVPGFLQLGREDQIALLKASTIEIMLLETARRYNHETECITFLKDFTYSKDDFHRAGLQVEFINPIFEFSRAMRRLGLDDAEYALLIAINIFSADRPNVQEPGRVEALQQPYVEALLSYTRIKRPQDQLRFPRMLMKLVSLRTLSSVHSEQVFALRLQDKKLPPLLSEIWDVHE
T1 sequence (P19793 1-462 partner): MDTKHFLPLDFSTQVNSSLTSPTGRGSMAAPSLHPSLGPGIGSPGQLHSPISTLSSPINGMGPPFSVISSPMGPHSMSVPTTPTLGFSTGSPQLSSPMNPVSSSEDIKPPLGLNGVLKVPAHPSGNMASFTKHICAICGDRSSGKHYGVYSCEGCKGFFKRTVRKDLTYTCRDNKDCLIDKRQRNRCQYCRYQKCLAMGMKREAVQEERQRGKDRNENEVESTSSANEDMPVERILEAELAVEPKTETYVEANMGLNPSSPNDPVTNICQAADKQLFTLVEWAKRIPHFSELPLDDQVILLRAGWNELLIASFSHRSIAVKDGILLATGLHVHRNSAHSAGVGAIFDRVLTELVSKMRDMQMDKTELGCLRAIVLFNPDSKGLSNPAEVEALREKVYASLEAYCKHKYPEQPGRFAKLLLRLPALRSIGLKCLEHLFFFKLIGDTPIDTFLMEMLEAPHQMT
The experiment in a line: LXR/LXRE co-transfection assay (luciferase reporter) in CV-1 cells, LXRβ. The following applies: for EC50: CV-1 cells transfected with pCMX-hLXRβ and LXREx1-Tk-Luciferase, 20 hours incubation, read-out: LXRbeta agonism EC50; for Emax: CV-1 cells, relative to maximum response of high control N-(3-((4-fluorophenyl)-(naphthalene-2-sulfonyl)amino)propyl)-2,2-dimethylpropionamide, read-out: LXRbeta % EFFICACY
Format: cell-based. The procedure, abridged:
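CV-1 cells transiently co-transfected with full-length human LXRβ, LXRE-Tk-luciferase reporter and β-galactosidase control, then exposed to compound (≤0.5% DMSO) for 20 h at 37 °C before luminescence read. EC50 from 10-point, half-log dose curves; efficacy relative to the sulfonamide high control, means of 2–3 experiments.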

The term EC50 denotes the concentration at which the effect is half-maximal. With `Cc1nc(-c2cc(-c3cc(F)c(CO)c(S(C)(=O)=O)c3)ccc2-n2nc(C(F)(F)F)cc2Cl)c(-c2ccc3c(c2)OC(F)(F)O3)o1` [Example 411, (4′-(5-chloro-3-(trifluoromethyl)-1H-pyrazol-1-yl)-3′-(5-(2,2-difluorobenzo[d][1,3]dioxol-5-yl)-2-methyloxazol-4-yl)-3-fluoro-5-(methylsulfonyl)biphenyl-4-yl)methanol], the EC50 came out at 19 nM and the Emax came to 90%.
Taken in the same sequence, the figures for `Cc1nc(-c2cc(-c3cccc(S(C)(=O)=O)c3)ccc2-n2nc(C(F)(F)F)cc2Cl)c(-c2ccc3c(c2)OC(F)(F)O3)o1` [Example 412, 4-(4-(5-chloro-3-(trifluoromethyl)-1H-pyrazol-1-yl)-3′-(methylsulfonyl)biphenyl-3-yl)-5-(2,2-difluorobenzo[d][1,3]dioxol-5-yl)-2-methyloxazole] were 29 nM and 93%.
Taken in the same sequence, the figures for `Cc1nc(-c2cc(-c3cc(F)c(CO)c(S(C)(=O)=O)c3)ccc2-n2ccc(C(F)(F)F)n2)c(-c2ccc(OC(F)(F)F)cc2)o1` [Example 413, (3-fluoro-3′-(2-methyl-5-(4-(trifluoromethoxy)phenyl)oxazol-4-yl)-5-(methylsulfonyl)-4′-(3-(trifluoromethyl)-1H-pyrazol-1-yl)biphenyl-4-yl)methanol] were 52 nM and 73%.
Taken in the same sequence, the figures for `Cc1nc(-c2cc(-c3cccc(S(C)(=O)=O)c3)ccc2-n2ccc(C(F)(F)F)n2)c(-c2ccc(OC(F)(F)F)cc2)o1` [Example 414, 2-methyl-4-(3′-(methylsulfonyl)-4-(3-(trifluoromethyl)-1H-pyrazol-1-yl)biphenyl-3-yl)-5-(4-(trifluoromethoxy)phenyl)oxazole] were 92 nM and 80%.
`Cc1nc(-c2cc(-c3cc(F)c(CO)c(S(C)(=O)=O)c3)ccc2-n2nc(C(F)(F)F)cc2C2CC2)c(-c2ccc(OC(F)(F)F)cc2)o1` [Example 415, (4′-(5-cyclopropyl-3-(trifluoromethyl)-1H-pyrazol-1-yl)-3-fluoro-3′-(2-methyl-5-(4-(trifluoromethoxy)phenyl)oxazol-4-yl)-5-(methylsulfonyl)biphenyl-4-yl)methanol]: the EC50 came to 458 nM and the Emax amounted to 37%.
Consider `Cc1nc(-c2cc(-c3cccc(S(C)(=O)=O)c3)ccc2-n2ccc(C(N)=O)n2)c(-c2ccc(OC(F)(F)F)cc2)o1` [Example 416], for which the concentration giving a half-maximal response (EC50) was 3050 nM and the Emax was determined as 27%.
Consider `Cc1nc(-c2cc(-c3cccc(S(C)(=O)=O)c3)ccc2-n2ccc(C(C)(C)O)n2)c(-c2ccc(OC(F)(F)F)cc2)o1` [Example 417, 2-(1-(3-(2-methyl-5-(4-(trifluoromethoxy)phenyl)oxazol-4-yl)-3′-(methylsulfonyl)-[1,1′-biphenyl]-4-yl)-1H-pyrazol-3-yl)propan-2-ol], for which the EC50 was found to be 1010 nM and the Emax is 16%.
Consider `Cc1nc(-c2cc(-c3cccc(C4(C(N)=O)CC4)c3)ccc2-n2nc(C(F)(F)F)cc2Cl)c(-c2ccc(OC(F)(F)F)cc2)o1` [Example 418, 1-(4′-(5-chloro-3-(trifluoromethyl)-1H-pyrazol-1-yl)-3′-(2-methyl-5-(4-(trifluoromethoxy)phenyl)oxazol-4-yl)-[1,1′-biphenyl]-3-yl) cyclopropanecarboxamide], for which the EC50 stood at 728 nM and the Emax is 74%.
Turning to `Cc1nc(-c2ccc3c(c2)OC(F)(F)O3)c(-c2cc(-c3cccc(S(C)(=O)=O)c3)ccc2-n2cc(Cl)c(C(F)(F)F)n2)o1` [Example 419, 5-(4-(4-chloro-3-(trifluoromethyl)-1H-pyrazol-1-yl)-3′-(methylsulfonyl)-[1,1′-biphenyl]-3-yl)-4-(2,2-difluorobenzo[d][1,3]dioxol-5-yl)-2-methyloxazole], the EC50 was determined as 4 nM and the Emax amounted to 71%.
Turning to `Cc1nc(-c2ccc3c(c2)OC(F)(F)O3)c(-c2cc(-c3cc(F)c(CO)c(S(C)(=O)=O)c3)ccc2-n2cc(Cl)c(C(F)(F)F)n2)o1` [Example 420, (4′-(4-chloro-3-(trifluoromethyl)-1H-pyrazol-1-yl)-3′-(4-(2,2-difluorobenzo[d][1,3]dioxol-5-yl)-2-methyloxazol-5-yl)-3-fluoro-5-(methylsulfonyl)-[1,1′-biphenyl]-4-yl) methanol], the concentration for a half-maximal effect (EC50) stood at 7 nM and the Emax turned out to be 74%.
Consider `Cc1nc(-c2cc(F)c(OC(F)F)c(F)c2)c(-c2cc(-c3cccc(S(C)(=O)=O)c3)ccc2-n2cc(Cl)c(C(F)(F)F)n2)o1` [Example 421], for which the EC50 turned out to be 21 nM and the Emax was found to be 76%.
Turning to `Cc1nc(-c2cc(F)c(OC(F)F)c(F)c2)c(-c2cc(-c3cc(F)c(CO)c(S(C)(=O)=O)c3)ccc2-n2cc(Cl)c(C(F)(F)F)n2)o1` [Example 422, (4′-(4-chloro-3-(trifluoromethyl)-1H-pyrazol-1-yl)-3′-(4-(4-(difluoromethoxy)-3,5-difluorophenyl)-2-methyloxazol-5-yl)-3-fluoro-5-(methylsulfonyl)-[1,1′-biphenyl]-4-yl)methanol], the half-maximal effective concentration (EC50) came to 4 nM and the Emax is 98%.
Taken in the same sequence, the figures for `Cc1nc(-c2ccc(Cl)cc2Cl)c(-c2cc(-c3cccc(S(C)(=O)=O)c3)ccc2-n2cc(Cl)c(C(F)(F)F)n2)o1` [Example 423, 5-(4-(4-chloro-3-(trifluoromethyl)-1H-pyrazol-1-yl)-3′-(methylsulfonyl)-[1,1′-biphenyl]-3-yl)-4-(2,4-dichlorophenyl)-2-methyloxazole] were 60 nM and 78%.
For `Cc1nc(-c2ccc(Cl)cc2Cl)c(-c2cc(-c3cc(F)c(CO)c(S(C)(=O)=O)c3)ccc2-n2cc(Cl)c(C(F)(F)F)n2)o1` [Example 424, (4′-(4-chloro-3-(trifluoromethyl)-1H-pyrazol-1-yl)-3′-(4-(2,4-dichlorophenyl)-2-methyloxazol-5-yl)-3-fluoro-5-(methylsulfonyl)-[1,1′-biphenyl]-4-yl)methanol] the same measures were 13 nM and 60%.
`Cc1nc(-c2ccc(OC(F)F)nc2)c(-c2cc(-c3cccc(S(C)(=O)=O)c3)ccc2-n2cc(Cl)c(C(F)(F)F)n2)o1` [Example 425]: the EC50 is 24 nM and the Emax is 99%.
`Cc1nc(-c2ccc(OC(F)F)nc2)c(-c2cc(-c3cc(F)c(CO)c(S(C)(=O)=O)c3)ccc2-n2cc(Cl)c(C(F)(F)F)n2)o1` [Example 426, (4′-(4-chloro-3-(trifluoromethyl)-1H-pyrazol-1-yl)-3′-(4-(6-(difluoromethoxy)pyridin-3-yl)-2-methyloxazol-5-yl)-3-fluoro-5-(methylsulfonyl)-[1,1′-biphenyl]-4-yl) methanol]: the concentration giving a half-maximal response (EC50) is 8 nM and the Emax was 72%.
As for `COc1ncc(-c2nc(C)oc2-c2cc(-c3cccc(S(C)(=O)=O)c3)ccc2-n2cc(Cl)c(C(F)(F)F)n2)cn1` [Example 427, 5-(4-(4-chloro-3-(trifluoromethyl)-1H-pyrazol-1-yl)-3′-(methylsulfonyl)-[1,1′-biphenyl]-3-yl)-4-(2-methoxypyrimidin-5-yl)-2-methyloxazole], the concentration for a half-maximal effect (EC50) turned out to be 94 nM and the Emax is 58%.
With `COc1ncc(-c2nc(C)oc2-c2cc(-c3cc(F)c(CO)c(S(C)(=O)=O)c3)ccc2-n2cc(Cl)c(C(F)(F)F)n2)cn1` [Example 428, (4′-(4-chloro-3-(trifluoromethyl)-1H-pyrazol-1-yl)-3-fluoro-3′-(4-(2-methoxypyrimidin-5-yl)-2-methyloxazol-5-yl)-5-(methylsulfonyl)-[1,1′-biphenyl]-4-yl)methanol], the concentration giving a half-maximal response (EC50) stood at 93 nM and the Emax turned out to be 83%.
With `Cc1nc(-c2ccc(OC(F)(F)F)cc2)c(-c2cc(-c3cccc(C(C)(C)C#N)c3)ccc2-n2cc(Cl)c(C(F)(F)F)n2)o1` [Example 429, 2-(4′-(4-chloro-3-(trifluoromethyl)-1H-pyrazol-1-yl)-3′-(2-methyl-4-(4-(trifluoromethoxy)phenyl)oxazol-5-yl)-[1,1′-biphenyl]-3-yl)-2-methylpropanenitrile], the EC50 is 348 nM and the Emax came out at 60%.
